{
  "source": "patent US20230390323A1",
  "about": "“SPRAYABLE ANTIVIRAL FORMULATION” (priority 2020, published 2023)",
  "test_system": "cells",
  "assay": "Cell compliance with the spray formulations",
  "type": "cell-based",
  "protocol": "A study was undertaken to determine cell compliance with the spray formulations over a 48 hour testing period. […] Dose-response was linear (R^2=0.96 and 0.97 for gellan and lambda-carrageenan, respectively), with reduced cell death as the systems became increasing more dilute.",
  "data": [
    {"substance": "gellan", "values": [
      {"measurement": "Reduction in the number of living cells", "result": 2, "unit": "fold"}
    ]}
  ]
}
